Reference: patent US4851440A, “Leukotriene antagonists, processes for the preparation thereof, the use thereof for the treatment of diseases, and precursors” (Hoechst Aktiengesellschaft, priority 1987, dated 1989)
≈ marks a conversion by molar mass, not a printed value.

Columns and labels:
Assay type in all cases: cell-based
LTC4 = experiment: Inhibition of the LTC4-induced contraction of strips of guinea pig lung; details: Cavia porcellus; LTC4 3 ng/ml of bath liquid; lung strips pretreated with indomethacin (10^-6 g/ml); substance added at maximum contraction plateau; 37° C.; read-out: IC50 versus LTC4
Procedure: (§1) The leukotriene-antagonistic action of the substances of the general formula I according to the invention is determined by the inhibition of the leukotriene-induced contraction of strips of guinea pig lung. The method which is used is a modification of the tests described by Foreman, Shelly and Weber (Arch. Int. Pharmacodyn. 278, 193-206 (1985)).
(§2) Guinea pigs are sacrificed by an overdose of ether. The thoracic cavity is opened; the lungs are removed and cut into strips 5 cm long, which are stored in physiological saline. For the measurement, the strips of lung are placed in an organ bath filled with Ringer's solution which is equilibrated at 37° C. and through which carbogen (O2 /CO2 95:5 parts by volume) is passed. The strips are left to equilibrate under a load of 0.5-1 g for 30-60 minutes. The strips of lung are pretreated with indomethacin (10^-6 g/ml of bath liquid) before the test starts.
(§3) The contraction is induced by adding LTC4, LTD4 or LTE4 in a concentration of 3 ng/ml of bath liquid. The test substances are administered therapeutically into the bath, after the maximum contraction plateau has been reached, in several concentrations and at time intervals of 10 minutes. 6-12 strips of lung are used for each concentration of the test substances.
(§4) The concentrations of the test substances at which the contraction is reduced by 50% (IC50) are indicated in μg/ml.

LTD4 = experiment: Inhibition of the LTD4-induced contraction of strips of guinea pig lung; details: Cavia porcellus; LTD4 3 ng/ml of bath liquid; lung strips pretreated with indomethacin (10^-6 g/ml); substance added at maximum contraction plateau; 37° C.; read-out: IC50 versus LTD4
Procedure: as §1, §2, §3, §4

LTE4 = experiment: Inhibition of the LTE4-induced contraction of strips of guinea pig lung; details: Cavia porcellus; LTE4 3 ng/ml of bath liquid; lung strips pretreated with indomethacin (10^-6 g/ml); substance added at maximum contraction plateau; 37° C.; read-out: IC50 versus LTE4
Procedure: as §1, §2, §3, §4

Row | SMILES | IC50 (LTC4) [µg/mL] | IC50 (LTD4) [µg/mL] | IC50 (LTE4) [µg/mL]
1 | COC(=O)CSC[C@@H](O)[C@@H](Sc1cccc(OC)c1)c1ccccc1 (racemic) [Compound B, Methyl (5RS,6SR)-5-hydroxy-6-(3-methoxyphenylthio)-6-phenyl-3-thiahexanoate] | 0.6 to 1 (≈ 1.59 to 2.64 µM) | 0.6 (≈ 1.59 µM) | 1 (≈ 2.64 µM)
2 | COC(=O)COC[C@@H](O)[C@@H](Sc1cccc(OC)c1)c1ccccc1 (racemic) [Compound A, Methyl (5RS,6SR)-5-hydroxy-6-(3-methoxyphenylthio)-6-phenyl-3-oxahexanoate] | 0.6 (≈ 1.66 µM) | 0.3 (≈ 0.828 µM) | 1 (≈ 2.76 µM)
3 | CCCS[C@@H](c1ccccc1)[C@H](O)COCC(=O)OC (racemic) [Compound D, Methyl (5RS,6SR)-5-hydroxy-6-phenyl-3-oxa-7-thiadecanoate] | > 10 | 0.5 (≈ 1.68 µM) | > 10
4 | COC(=O)CSC[C@H](O)[C@H](Sc1cccc(OC)c1)c1ccccc1 [Compound C, Methyl (5 S,6 R)(-)-5-hydroxy-6-(3-methoxyphenylthio)-6-phenyl-3-thiahexanoate] | 0.3 to 0.6 (≈ 0.793 to 1.59 µM) | 0.1 (≈ 0.264 µM) | 0.3 to 0.6 (≈ 0.793 to 1.59 µM)
5 | CCCS[C@@H](c1ccccc1)[C@H](O)CSCC(=O)OC (racemic) [Compound E, Methyl (5RS,6SR)-5-hydroxy-6-phenyl-3,7-dithiadecanoate] | 6 (≈ 19.1 µM) | 0.6 to 1 (≈ 1.91 to 3.18 µM) | 6 to 10 (≈ 19.1 to 31.8 µM)
